pIC50: −log10 of the molar value. ≈ marks a conversion by molar mass, not a printed value.
Assays:
[1] = system: L. (L.) amazonensis promastigote forms; assay: In vitro antileishmanial activity on promastigote forms (MTT); type: cell-based, Leishmania (Leishmania) amazonensis; conditions: 72 h, MTT; read-out: L. amazonensis Promastigotes (Pro.) IC50
[2] = system: L. (L.) amazonensis intracellular amastigotes; assay: In vitro antileishmanial activity on intracellular amastigotes in peritoneal macrophages; type: cell-based, Leishmania (Leishmania) amazonensis
Description: Peritoneal macrophages were obtained from BALB/c mice in RPMI 1640 culture medium (Sigma-Aldrich® São Paulo, Brazil). After exclusion of inviable cells with trypan blue staining (Sigma-Aldrich® São Paulo, Brazil), cells were transferred to 24-well plates with 13 mm round glass coverslips (10^6 cells/well) and kept at 37 °C/5% CO2. After adhesion for one hour, cells were infected with promastigote forms of L. (L.) amazonensis in the stationary phase (4 × 10^6 cells/well). After 4 h of incubation, samples (complexes 1–7) were added in six replicates (6.25–50.0 µg·mL^−1). […] Coverslips were removed after 24 h, subjected to a dehydration battery with increasing concentrations of acetone: xylol and stained with Giemsa (Sigma-Aldrich®, São Paulo, Brazil) diluted 1:10 in distilled water. After mounting on slides, 200 cells per coverslip were analyzed by light microscopy and the average number of amastigotes/cells was calculated. IC50 was determined using a non-linear dose–response regression curve as described above. The concentrations of complexes were compared by Two-way ANOVA followed by the Tukey test.

NIH/3T3 fibroblasts = assay: Cytotoxicity in mammalian cells (sulforhodamine B); type: cell-based; conditions: 48 h, read-out: Fibroblasts NIH/3T3 (Fib.) IC50
Description: The cytotoxic effect of compounds 1–7 was evaluated on NIH/3T3 fibroblasts obtained from the Rio de Janeiro Cell Bank (Duque de Caxias, Brazil). Fibroblasts were seeded at […] in 96-well plates. After 24 h of fixation, cells were incubated for 48 h with 1–7 at 2.5–250 µg·mL^−1, in three replicates. Cell growth was evaluated using the sulforhodamine B colorimetric method, and the optical with absorbances read on the PT-READER microplate instrument (Spectramax 190, Molecular Devices, Sunnyvale, CA, USA) at 540 nm. […] The growth inhibition percentage-GI (%) of each test sample was calculated in Microsoft Office Excel 2007 software. IC50 was determined graphically in the Microcal Origin Version 6.00 program. The selectivity index (SI) was calculated as the ratio between the cytotoxicity on cells (IC50) and the activity on the parasite forms (IC50).

[3] = system: L. (L.) amazonensis-infected macrophages; assay: NO production by infected cells (Griess reaction); type: cell-based, BALB/c mice; conditions: 24 h after treatment, lowest concentration 6.25 µg·mL^−1
Description: Nitric oxide (NO) production by infected and treated peritoneal macrophages was estimated in the supernatants from the intracellular amastigotes assay by the Griess reaction. Aliquots of the supernatants ([…]) were incubated with Griess reagent (1:1) for 10 min at room temperature. Absorbance was read on a microplate reader (HumanReader HS, Wiesbaden, Germany) at 550 nm. Conversion of nitrite (NO^−2) to micromolar (µM) was performed by comparing the samples to a standard curve obtained with known concentrations (1–10 µM) of sodium nitrite diluted in RPMI 1640 medium (Sigma-Aldrich® São Paulo, Brazil). The average and standard error of the mean (SEM) were calculated from three replicates. The data were analyzed using ANOVA and subsequently subjected to the Bonferroni test.

[4] = system: L. (L.) amazonensis promastigote forms; assay: Flow cytometry for mitochondrial membrane potential (TMRE); type: cell-based, Leishmania (Leishmania) amazonensis
[5] = system: L. (L.) amazonensis promastigote forms; assay: Flow cytometry for apoptosis and membrane permeability (PE Annexin V / 7-AAD); type: cell-based, Leishmania (Leishmania) amazonensis; conditions: treatment at IC50
From the text: PE Annexin V staining precedes the loss of membrane integrity observed in the final stages of cell death, resulting from either apoptotic or necrotic processes. PE Annexin V is used in conjunction with the vital dye 7-Amino-Actinomycin (7-AAD) to identify early apoptotic cells (7-AAD negative, PE Annexin V positive). Viable cells with intact membranes exclude 7-AAD, but the membranes of dead and damaged cells are permeable to 7-AAD. Cells that are in late apoptosis or already dead are both PE Annexin V and 7-AAD positive. […] Heat-killed parasites (60 °C bath/10 min) were used as positive control, and untreated parasites were used as negative control. Promastigotes were stained with 5 µL of PE Annexin V and 5 µL 7-AAD (PE Annexin V Apoptosis Detection Kit I, BD Biosciences^TM, Franklin Lakes, NJ, USA) and immediately subjected to flow cytometric analysis (BD FACSCanto^TM II). Then, 10,000 events were captured in the region previously determined to correspond to the parasites. Fluorescence was quantified and histograms were generated.

[6] = system: promastigotes of Leishmania major; parameters: method as in ref 18 Derici et al.; conditions: ref 18 Derici et al.; cited from earlier work
[7] = system: promastigotes of L. (L.) infantum; parameters: method as in ref 18 Derici et al.; conditions: ref 18 Derici et al.; cited from earlier work
[8] = system: promastigotes of L. tropica; parameters: method as in ref 18 Derici et al.; conditions: ref 18 Derici et al.; cited from earlier work
[9] = system: L. (L.) infantum promastigotes; parameters: method as in ref 16 Luz et al.; conditions: ref 16 Luz et al.; cited from earlier work
[10] = system: Trypanosoma cruzi epimastigotes; parameters: method as in ref 45 Carvalho et al.; conditions: 30–50 μg·mL^−1; ref 45 Carvalho et al.; cited from earlier work
[11] = system: L. (L.) infantum promastigotes; parameters: method as in ref 16 Luz et al.; conditions: 25 μg·mL^−1; ref 16 Luz et al.; cited from earlier work

Structure (SMILES): CC(=O)C1=C([O-])C=C2Oc3c(C(C)=O)c(O)c(C)c(O)c3C2(C)C1=O.CC(=O)C1=C([O-])C=C2Oc3c(C(C)=O)c(O)c(C)c(O)c3C2(C)C1=O.CC(=O)C1=C([O-])C=C2Oc3c(C(C)=O)c(O)c(C)c(O)c3C2(C)C1=O.O.O.O.[Eu+3] (centres unmarked) [EuL3·3H2O 4]
- pIC50 [1]: 6.70
- pIC50 ([2]; BALB/c peritoneal macrophages, 24 h, Giemsa count, read-out: L. amazonensis Intracellular Amastigotes (Ama.) IC50): 5.53
- IC50 on intracellular amastigotes ([2]; converted from µM): 3.687 µg/mL
- pIC50 (NIH/3T3 fibroblasts): 4.70
- NO release from infected macrophages [3]: strongest effect
- NO release from infected macrophages ([3]; listed as EuL3·3H2O): triggered NO release
- TMRE-labeled promastigotes ([4]; 48 h after treatment at the calculated IC50): 79.9%
- TMRE-labeled promastigotes ([4]; 72 h after treatment at the calculated IC50): 80.6%
- 7-AAD-stained parasites ([5]; 24 h): 0.5%
- An. (PE Annexin V-stained parasites) ([5]; 24 h): 0.6%
- An./7-AAD (double stained parasites) ([5]; 24 h): 0.7%
- Unst. (unstained parasites) ([5]; 24 h): 98.2%
- 7-AAD-stained parasites ([5]; 48 h): 1.0%
- An. (PE Annexin V-stained parasites) ([5]; 48 h): 1.3%
- An./7-AAD (double stained parasites) ([5]; 48 h): 2.3%
- Unst. (unstained parasites) ([5]; 48 h): 95.4%
- 7-AAD-stained parasites ([5]; 72 h): 6.0%
- An. (PE Annexin V-stained parasites) ([5]; 72 h): 1.9%
- An./7-AAD (double stained parasites) ([5]; 72 h): 8.1%
- Unst. (unstained parasites) ([5]; 72 h): 84.0%

Structure (SMILES): CC(=O)c1c(O)c(C)c(O)c2c1OC1=CC(=O)C(C(C)=O)C(=O)C12C (centres unmarked) [usnic acid, 2,6-diacetyl-7,9-dihydroxy-8,9-dimethyl-1,3(2H,9bH)-dibenzofurandione]
- IC50/48 h on promastigotes [6]: 10.76 µg/mL (≈ 31.3 µM)
- IC50/48 h on promastigotes [7]: 13.34 µg/mL (≈ 38.7 µM)
- IC50/48 h on promastigotes [8]: 21.06 µg/mL (≈ 61.2 µM)
- IC50/72 h on promastigotes [9]: 18.30 µg/mL (≈ 53.1 µM)
- damage to the mitochondria [10]: marked swelling and branching
- changes in the mitochondrial morphology [11]: marked swelling

— PMC10779311, “Antileishmanial Activity, Toxicity and Mechanism of Action of Complexes of Sodium Usnate with Lanthanide Ions: Eu(III), Sm(III), Gd(III), Nd(III), La(III) and Tb(III)” (International Journal of Molecular Sciences, 2023)
